Key:
Format in all cases: in vivo
[1] = system: fall armyworm larvae (Spodoptera frugiperda); test: Spodoptera frugiperda spray test; settings: 168 h, maize leaf sections, after 7 days
Outline: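 Percent larval kill read at day 7, from 0% (no caterpillars dead) to 100% (all dead). Larvae were placed on dried Zea mays leaf discs previously sprayed with test preparations made from an acetone/DMF solution diluted in 1000 ppm emulsifier-containing water.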

[2] = system: brown planthopper (Nilaparvata lugens); test: Nilaparvata lugens spray test; settings: 96 h, 100 g/ha, rice plants, after 4 days
Method: Nilaparvata lugens—Spray Test
Solvent: 78.0 parts by weight of acetone • • 1.5 parts by weight of dimethylformamide
Emulsifier: alkylarylpolyglycol ether
To produce a suitable preparation of active compound, 1 part by weight of active compound is mixed with the stated amount of solvents and is diluted with water, containing an emulsifier concentration of 1000 ppm, to the desired concentration. Further test concentrations are prepared by dilution with emulsifier containing water.
Rice plants (Oryza sativa) are sprayed with a preparation of the active ingredient of the desired concentration and the plants are infested with the brown planthopper (Nilaparvata lugens).
After 4 days mortality in % is determined. 100% means all planthoppers have been killed and 0% means none of the planthoppers have been killed.

[3] = system: Rhipicephalus (Boophilus) microplus larvae (strain Parkhurst, resistant against synthetic pyrethroids); test: Rhipicephalus (Boophilus) microplus in-vitro contact test, larval cattle tick; settings: after 48 hours, read-out: efficacy (larvae dead or moribund); for pest or weed control at 1 µg/cm2, 100 g/ha: 1 μg/cm^2 (=100 g/ha); for pest or weed control at 5 µg/cm2, 500 g/ha: 5 μg/cm^2 (=500 g/ha)
Outline: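 Pyrethroid-resistant larvae (strain Parkhurst), 20–50 per tube, exposed by contact to a dried acetone film of compound (5 μg/cm² at 900 ppm) for 48 h at 27 °C and 85% humidity. Percent dead or moribund larvae scored from negative geotactic behaviour.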

[4] = system: green peach aphid (Myzus persicae); test: Myzus persicae spray test; settings: foliar, 120 h, Chinese cabbage leaf disks, after 5 days
Outline: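 Chinese cabbage leaf disks carrying all instars of M. persicae sprayed with compound in acetone/DMF, diluted in water with 1000 ppm alkylarylpolyglycol ether emulsifier. Percent mortality scored after 5 days (100% = all aphids killed).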

[5] = system: adult cat fleas (Ctenocephalides felis); test: Ctenocephalides felis in-vitro contact test, adult cat flea; settings: 5 μg/cm^2 (=500 g/ha), after 48 hours, read-out: efficacy (fleas dead or moribund)
Outline: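 Acetone solution coated onto glass tube walls; 900 ppm gives 5 μg/cm². Once dry, 5–10 adult fleas per tube held at room temperature for 48 h. Efficacy (%) is the share of fleas dead or moribund, i.e. unable to climb away on a 45–50° C heating plate.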

[6] = system: adult brown dog ticks (Rhipicephalus sanguineus); test: Rhipicephalus sanguineus in-vitro contact test, adult brown dog ticks; settings: 48 h, 5 μg/cm^2 (=500 g/ha), after 48 hours, read-out: efficacy (ticks dead or moribund)
Outline: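 Acetone solution coated on glass tube inner walls (900 ppm, giving 5 μg/cm^2); after drying, 5–10 adult ticks added and kept 48 h at room temperature. Efficacy scored as percent dead or moribund, i.e., ticks unable to climb away on a 45–50 °C heating plate within 5 min.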

Compound	mortality at 100 g/ha [1] [%]	mortality at 100 g/ha [2] [%]	pest or weed control at 1 µg/cm2, 100 g/ha [3] [%]	pest or weed control at 5 µg/cm2, 500 g/ha [3] [%]	mortality at 100 g/ha [4] [%]	pest or weed control at 5 µg/cm2, 500 g/ha [5] [%]	pest or weed control at 5 µg/cm2, 500 g/ha [6] [%]
CC(NC(=O)c1cc(C(F)(F)F)cc(C(F)(F)F)c1)c1nccnc1-c1ncccn1 (racemic) [Example I-8, (rac)-N-(1-(3-(Pyrimidin-2-yl)pyrazin-2-yl)ethyl)-3,5-bis(trifluoromethyl)benzamide]	100	100	100	100	100	–	–
CC(NC(=O)c1cc(Cl)cc(C(F)(F)F)c1)c1nccnc1-c1ncccn1 (racemic) [Example I-10, (rac)-3-Chloro-N-(1-(3-(pyrimidin-2-yl)pyrazin-2-yl)ethyl)-5-(trifluoromethyl)benzamide]	100	–	90	80	100	80	80

From patent US12583851B2, “Heteroaryl-substituted pyrazine derivatives as pesticides” (Elanco Animal Health GmbH, priority 2019, dated 2026)
